Experimental data from publication PMC5404560, “Towards Selective Mycobacterial ClpP1P2 Inhibitors with Reduced Activity against the Human Proteasome” (Antimicrobial Agents and Chemotherapy, 2017).
Values joined by “and” are separate entries in the source; they are usually repeats but may differ in a detail not shown here. Identical values can stand only once. Like-named read-outs stand apart in the source and are kept apart here.

What was measured:
[1] = target: HepG2 proteasome (Homo sapiens, UniProt P20618+P28074); assay: Cell-based proteasome CT-like peptidase inhibition assay (Proteasome-Glo)
Protocol: A cell-based CT-like peptidase assay was performed using the Proteasome-Glo cell-based assay reagent (Promega) according to the manufacturer's guidelines. Briefly, HepG2 cells (10^4 cells/well) were treated with the compounds indicated in the figures for 2 h, followed by incubation with the luminescent substrate for 10 min. Luminescence was detected with a Tecan M200 Pro plate reader.

[2] = tested on: M. smegmatis ΔprcAB; type: cell-based; settings: for M. smegmatis ΔprcAB MIC50: 24 h exposure, OD600, concentration inhibiting 50% of growth; for improvement of bacterial-growth inhibition compared to compound 1: M. smegmatis ΔprcAB
[3] = target: ClpP1P2 (Mycolicibacterium smegmatis, UniProt A0R197+A0R198); assay: ClpP1P2 inhibition whole-cell RFP-SsrA reporter assay; settings: 3 h incubation
[4] = M. smegmatis ΔprcAB IC50 (μM) for ClpP1P2, whole-cell RFP-SsrA reporter
[5] = read-out: IC50 (μM) for HepG2 proteasome, HepG2 cells, 2 h treatment, chymotrypsin-like site
[6] = read-out: M. smegmatis ΔprcAB IC50 (μM) for ClpP1P2, whole-cell RFP-SsrA reporter

Chain of ClpP1P2 (A0R198 4-203): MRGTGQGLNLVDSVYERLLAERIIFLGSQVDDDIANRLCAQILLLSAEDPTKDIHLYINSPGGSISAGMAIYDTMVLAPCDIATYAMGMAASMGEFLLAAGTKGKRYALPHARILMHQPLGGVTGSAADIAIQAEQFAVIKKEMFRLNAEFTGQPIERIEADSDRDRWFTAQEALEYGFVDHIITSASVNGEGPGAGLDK
Chain of ClpP1P2 (A0R197 17-218): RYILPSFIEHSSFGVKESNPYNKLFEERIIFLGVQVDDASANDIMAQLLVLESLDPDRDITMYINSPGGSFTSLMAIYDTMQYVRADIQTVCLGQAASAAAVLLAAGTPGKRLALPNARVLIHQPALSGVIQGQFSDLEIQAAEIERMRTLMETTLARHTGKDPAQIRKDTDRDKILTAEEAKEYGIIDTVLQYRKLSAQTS

Compound	IC50 [1] [µM]	M. smegmatis ΔprcAB MIC50 [2]	IC50 [3, 4]	improvement of bacterial-growth inhibition compared to compound 1 [2] [fold]	IC50 [1, 5] [µM]	IC50 [3, 6] [µM]
O=C(N[C@@H](Cc1ccccc1)C(=O)N[C@@H](CC1CCCCC1)B(O)O)c1cnccn1 (mixture of isomers) [Compound 29, ((R)-2-cyclohexyl-1-((S)-3-phenyl-2-(pyrazine-2-carboxamido)propanamido)ethyl)boronic acid]	0.127 ± 0.002	22.5 ± 2.5 µM	27 ± 16 µM	–	–	–
CC(C)C[C@H](NC(=O)[C@H](Cc1ccccc1)NC(=O)Cc1ccccc1)B(O)O (mixture of isomers) [Compound 34, ((R)-3-methyl-1-((S)-3-phenyl-2-(2-phenylacetamido)propanamido)butyl)boronic acid]	0.006 ± 0.001	12 ± 0 µM	9 ± 3 µM	–	–	–
CC(C)C[C@H](NC(=O)[C@H](Cc1ccccc1)NC(=O)c1cnc(-c2ccccc2)nc1)B(O)O (mixture of isomers) [Compound 38, ((R)-3-methyl-1-((S)-3-phenyl-2-(2-phenylpyrimidine-5-carboxamido)propanamido)butyl)boronic acid]	0.006 ± 0.001	2 ± 0 µM	1.7 ± 1 µM	–	–	–
CC(C)C[C@H](NC(=O)[C@H](Cc1ccccc1)NC(=O)c1ncc(-c2ccccc2)o1)B(O)O (mixture of isomers) [Compound 42, ((R)-3-methyl-1-((S)-3-phenyl-2-(5-phenyloxazole-2-carboxamido)propanamido)butyl)boronic acid]	0.006 ± 0.001	8 ± 0 µM	6.7 ± 4.1 µM	–	–	–
CC(C)C[C@H](NC(=O)CCc1ccccc1)B(O)O [Compound 25, (R)-(3-methyl-1-(3-phenylpropanamido)butyl)boronic acid]	0.25	>200 µM	> 200 µM	–	–	–
CC(C)C[C@H](NC(=O)[C@@H](N)Cc1ccccc1)B(O)O [Compound 26, ((R)-1-((S)-2-amino-3-phenylpropanamido)-3-methylbutyl)boronic acid]	0.08 ± 0.01	100 ± 0 µM	> 200 µM	–	–	–
CCCCC[C@H](NC(=O)[C@H](Cc1ccccc1)NC(=O)c1cnccn1)B(O)O [Compound 27, ((R)-1-((S)-3-phenyl-2-(pyrazine-2-carboxamido)propanamido)hexyl)boronic acid]	0.03	3 ± 0 µM	4 µM	2	–	–
O=C(N[C@@H](Cc1ccccc1)C(=O)N[C@H](B(O)O)C1CCCCC1)c1cnccn1 [Compound 28, ((R)-cyclohexyl((S)-3-phenyl-2-(pyrazine-2-carboxamido)propanamido)methyl)boronic acid]	0.155 ± 0.025	16 ± 4 µM	33 ± 12 µM	–	–	–
O=C(N[C@@H](Cc1ccccc1)C(=O)N[C@@H](CCC1CCCCC1)B(O)O)c1cnccn1 [Compound 30, ((R)-3-cyclohexyl-1-((S)-3-phenyl-2-(pyrazine-2-carboxamido)propanamido)propyl)boronic acid]	0.5 ± 0.01	3.5 µM and 3.5 ± 0.5 µM	25 µM	–	–	–
CC(=O)N[C@@H](Cc1ccccc1)C(=O)N[C@@H](CC(C)C)B(O)O [Compound 33, ((R)-1-((S)-2-acetamido-3-phenylpropanamido)-3-methylbutyl)boronic acid]	0.01 ± 0.005	50 ± 0 µM	42 µM and 41.7 µM	–	–	–
CC(C)C[C@H](NC(=O)[C@H](Cc1ccccc1)NC(=O)c1ccccc1)B(O)O [Compound 35, ((R)-1-((S)-2-benzamido-3-phenylpropanamido)-3-methylbutyl)boronic acid]	0.006 ± 0.001	3.5 ± 0.5 µM	3.3 ± 0.5 µM	–	–	–
CC(C)C[C@H](NC(=O)[C@H](Cc1ccccc1)NC(=O)c1cccnc1)B(O)O [Compound 36, ((R)-3-methyl-1-((S)-2-(nicotinamido)-3-phenylpropanamido)butyl)boronic acid]	0.03	6 ± 0 µM	4 ± 1.4 µM	–	–	–
CC(C)C[C@H](NC(=O)[C@H](Cc1ccccc1)NC(=O)c1ccccn1)B(O)O [Compound 37, ((R)-3-methyl-1-((S)-3-phenyl-2-(picolinamido)propanamido)butyl)boronic acid]	0.006 ± 0.001	15 ± 0 µM	17 ± 5.7 µM	–	–	–
CC(C)C[C@H](NC(=O)[C@H](Cc1ccccc1)NC(=O)c1cc(-c2ccccc2)ncn1)B(O)O [Compound 39, ((R)-3-methyl-1-((S)-3-phenyl-2-(6-phenylpyrimidine-4-carboxamido)propanamido)butyl) boronic acid]	0.006 ± 0.001	>200 µM	> 200 µM	–	–	–
CC(C)C[C@H](NC(=O)[C@H](Cc1ccccc1)NC(=O)c1cccc2ncsc12)B(O)O [Compound 43]	0.006 ± 0.001	3 ± 0 µM	2.75 ± 1.25 µM	2	–	–
CC(C)C[C@H](NC(=O)[C@H](Cc1ccccc1)NC(=O)[C@H](Cc1ccccc1)NC(=O)c1cnccn1)B(O)O [Compound 44]	0.006 ± 0.001	75 ± 0 µM	> 200 µM	–	–	–
CC(C)C[C@H](NC(=O)[C@H](Cc1ccccc1)NC(=O)N1CCCCC1)B(O)O [Compound 45, ((R)-3-methyl-1-((S)-3-phenyl-2-(piperidine-1-carboxamido)propanamido)butyl)boronic acid]	0.023 ± 0.008	19 ± 5.4 µM	22.5 ± 2.5 µM	–	–	–
CC(=O)N[C@@H](Cc1ccccc1)C(=O)N[C@@H](Cc1ccccc1)B(O)O [Compound 46, ((R)-1-((S)-2-acetamido-3-phenylpropanamido)-2-phenylethyl)boronic acid]	0.218 ± 0.158	50 ± 0 µM	50 µM	–	–	–
O=C(N[C@@H](Cc1ccccc1)C(=O)N[C@@H](CCC1CCCCC1)B(O)O)c1cccc2ncsc12 [Compound 47, ((R)-1-((S)-2-(benzo[d]thiazole-7-carboxamido)-3-phenylpropanamido)-3-cyclohexylpropyl)boronic acid]	0.288 ± 0.088	>200 µM	> 200 µM	–	–	–
O=C(N[C@@H](Cc1ccccc1)C(=O)N[C@@H](CCC1CCCCC1)B(O)O)c1ccccc1 [Compound 48, ((R)-1-((S)-2-benzamido-3-phenylpropanamido)-3-cyclohexylpropyl)boronic acid]	> 0.5	>200 µM	> 200 µM	–	–	–
O=C(N[C@@H](Cc1ccccc1)C(=O)N[C@@H](CCC1CCCCC1)B(O)O)c1ccccc1F [Compound 49, ((R)-3-cyclohexyl-1-((S)-2-(2-fluorobenzamido)-3-phenylpropanamido)propyl)boronic acid]	0.5	>200 µM	> 200 µM	–	–	–
CC(C)(C(=O)N[C@@H](Cc1ccccc1)C(=O)N[C@@H](CCC1CCCCC1)B(O)O)n1cccc1 [Compound 50, ((R)-3-cyclohexyl-1-((S)-2-(2-methyl-2-(1H-pyrrol-1-yl)propanamido)-3-phenylpropanamido)propyl)boronic acid]	> 0.5	150 ± 0 µM	200 µM	–	–	–
O=C(N[C@@H](Cc1ccccc1)C(=O)N[C@@H](CCc1ccccc1)B(O)O)c1ccc(C(F)(F)F)cc1 [Compound 52, ((R)-3-phenyl-1-((S)-3-phenyl-2-(4-(trifluoromethyl)benzamido)propanamido)propyl)boronic acid]	0.1	11 ± 1 µM	12 µM	–	–	–
O=C(N[C@@H](Cc1ccccc1)C(=O)N[C@@H](CCc1ccccc1)B(O)O)c1ccccc1F [Compound 53, ((R)-1-((S)-2-(2-fluorobenzamido)-3-phenylpropanamido)-3-phenylpropyl)boronic acid]	0.2	7 ± 3 µM	4.5 µM	–	–	–
CC(C)(C(=O)N[C@@H](Cc1ccccc1)C(=O)N[C@@H](CCc1ccccc1)B(O)O)n1cccc1 [Compound 54, ((R)-1-((S)-2-(2-methyl-2-(1H-pyrrol-1-yl)propanamido)-3-phenylpropanamido)-3-phenylpropyl)boronic acid]	0.5	30 ± 0 µM	25 µM	–	–	–
O=C(N[C@@H](Cc1ccccc1)C(=O)N[C@@H](CCc1ccccc1)B(O)O)c1cnc(-c2ccccc2)nc1 [Compound 55, ((R)-3-phenyl-1-((S)-3-phenyl-2-(2-phenylpyrimidine-5-carboxamido)propanamido)propyl)boronic acid]	0.06	5.5 ± 0.5 µM	6 µM	–	–	–
CC(C)C[C@H](NC(=O)[C@H](C)NC(=O)c1cnccn1)B(O)O [Compound 56, ((R)-3-methyl-1-((S)-2-(pyrazine-2-carboxamido)propanamido)butyl)boronic acid]	0.225 ± 0.025	76.7 ± 20.5 µM	100 µM	–	–	–
((R)-1-((S)-2-(indolizine-2-carboxamido)-3-phenylpropanamido)-3-methylbutyl)boronic acid [Compound 40]	–	8.3 ± 4.5 µM	–	–	0.023 ± 0.008	9 ± 3
((R)-1-((S)-2-(indolizine-3-carboxamido)-3-phenylpropanamido)-3-methylbutyl)boronic acid [Compound 41]	–	15 ± 0 µM	–	–	0.006 ± 0.001	11.3 ± 0.9
